According to patent US20250073210A1, “Use of Ergothioneine for Enhancing Glutathione Level” (priority 2022, published 2025):
Values joined by “and” are separate entries in the source; they are usually repeats but may differ in a detail not shown here. Identical values can stand only once. Like-named read-outs stand apart in the source and are kept apart here.

What was measured:
[1] = test system: normal human epidermal keratinocytes (NHEK); test: Preliminary cytotoxicity assay (WST-8 reduction, viability and morphological observations); assay type: cell-based; conditions: 24 hours; for Viability (%): single replicates
Description: (§1) In the present study, the effects of compound L-Ergothioneine were investigated in normal human epidermal keratinocytes (NHEK) under basal or UV-irradiated conditions. More specifically, the effects of this compound were evaluated using RT-qPCR technology. Extracted mRNA was analyzed using a PCR array (“mQPA-8-Nrf2”) for the analysis of 8 target genes (including 1 housekeeping gene) selected for their role in Nrf2 pathway. Prior to this assay, a preliminary cytotoxicity assay was performed on compound L-Ergothioneine and Resveratrol (reference in basal condition) using a standard WST-8 reduction assay, in order to determine the concentrations to be tested in this study.
(§2) Cell type: Normal human epidermal keratinocytes (NHEK) used at the 3rd passage. Culture conditions: 37° C., 5% CO2. Culture medium: Keratinocyte-SFM optimized for the assay, supplemented with Epidermal Growth Factor Pituitary extract. Assay medium: Keratinocyte-SFM optimized for the assay. Test compound: L-Ergothioneine in ultrapure water. Test concentrations: 0.5, 3 and 30 μM. Reference: Resveratrol. Test concentration: 20 μM.
(§3) Cell type: NHEK in assay medium. Incubation time: 24 hours.
(§4) After treatment, the cells were incubated with WST-8 (highly water-soluble tetrazolium salt) reduced in a water-soluble orange colored product (formazan) by succinate dehydrogenase (mitochondrial enzyme). This transformation is proportional to the number of living cells and their metabolic activity. The optical density (OD) of the extracts at 450 nm was recorded with a spectrometer (VERSAmax, Molecular Devices).

[2] = as above; assay type: cell-based, human; conditions: human, normal human epidermal keratinocytes (NHEK)
Description: as §1, §2, §3, §4

[3] = test system: RPS28; test: RT-qPCR PCR array mQPA-8-Nrf2, housekeeping gene RPS28; assay type: cell-based, human; conditions: basal conditions, 20 μM
Description: as §1, §2
(§5) Keratinocytes were seeded in 24-well plates and cultured for 24 hours in culture medium and in assay medium for a further 24 hours. The medium was then replaced by assay medium containing or not (control) the compound or Resveratrol and cells were pre-incubated for 24 hours.
(§6) After pre-incubation, the medium was then removed and replaced by a PBS solution. For basal conditions, the plate was kept in the dark during the irradiation time. For irradiated conditions, the cells were irradiated with UVB−275 mJ/cm^2 (+UVA−2 J/cm^2) using a SOL500 Sun Simulator equipped with an H2 filter (Dr. Hönle, AG). After irradiation time, the treatments were renewed, and the cells were incubated for 24 hours. All experimental conditions were performed in n=3. At the end of incubation, the cells were washed in phosphate buffered saline (PBS) solution and immediately frozen at −80° C.
(§7) The expression of markers was analyzed using RT-qPCR method on total RNA extracted from the cell monolayers of each experimental condition (before RNA extraction, the replicates of the same experimental condition were pooled). The analysis of transcripts was performed in n=2 using a PCR array dedicated to research and adapted to ‘screening’ format and targeting 8 genes selected for their role in Nrf2 pathway.
(§8) Total RNA was extracted from each sample using TriPure Isolation Reagent® according to the supplier's instructions. The amount and quality of RNA were evaluated using capillary electrophoresis (Bioanalyzer 2100, Agilent technologies). The complementary DNA (cDNA) was synthetized by reverse transcription of total RNA in presence of oligo(dT) and «Transcriptor Reverse Transcriptase» (Roche Molecular System Inc.). The cDNA quantities were then adjusted before PCR.
(§9) The PCR (Polymerase Chain Reaction) were performed using the «LightCycler®» system (Roche Molecular System Inc.) according to the supplier's instructions. The reaction mix (10 μl final) was prepared as follows: 2.5 μl of cDNA; primers (forward and reverse); reagent mix (Roche) containing taq DNA polymerase, SYBR Green I and MgCl2.
(§10) The incorporation of fluorescence in amplified DNA was continuously measured during the PCR cycles. […] The value selected for RE calculations is the “output point” (Ct) of the fluorescence curve. For a considered marker, the highest is the cycle number; the lowest is the mRNA quantity. The RE value was calculated with the formula: (½^number of cycles)×10^6. The PCR array used in the present study included 1 reference gene (RPS28).

[4] = test system: HMOX1; test: RT-qPCR PCR array mQPA-8-Nrf2, HMOX1 expression in NHEK; assay type: cell-based, human; conditions: basal conditions, 20 μM
Description: as §1, §2, §5, §6, §7, §8, §9, §10

[5] = test system: MT1G; test: RT-qPCR PCR array mQPA-8-Nrf2, MT1G expression in NHEK; assay type: cell-based, human; conditions: basal conditions, 20 μM
Description: as §1, §2, §5, §6, §7, §8, §9, §10

[6] = test system: TXN; test: RT-qPCR PCR array mQPA-8-Nrf2, TXN expression in NHEK; assay type: cell-based, human; conditions: basal conditions, 20 μM
Description: as §1, §2, §5, §6, §7, §8, §9, §10

[7] = test system: NHEK; test: Morphological observation of cells at the end of the culture, irradiated condition; assay type: cell-based, human
Description: as §5, §6

[8] = test system: Nrf2 pathway; test: Gene expression profile of keratinocytes (mQPA-8-Nrf2 array as a whole); assay type: cell-based, human; conditions: basal, tested at 20 μM
Description: as §1, §2, §5, §6, §7

[9] = test system: NQO1; test: RT-qPCR PCR array mQPA-8-Nrf2, NQO1 expression in NHEK; assay type: cell-based, human; conditions: basal conditions, 20 μM
Description: as §1, §2, §5, §6, §7, §8, §9, §10

[10] = test system: GCLC; test: RT-qPCR PCR array mQPA-8-Nrf2, GCLC expression in NHEK; assay type: cell-based, human; conditions: basal conditions, 20 μM
Description: as §1, §2, §5, §6, §7, §8, §9, §10

[11] = test system: TXNRD1; test: RT-qPCR PCR array mQPA-8-Nrf2, TXNRD1 expression in NHEK; assay type: cell-based, human; conditions: basal conditions, 20 μM
Description: as §1, §2, §5, §6, §7, §8, §9, §10

[12] = test system: GCLM; test: RT-qPCR PCR array mQPA-8-Nrf2, GCLM expression in NHEK; assay type: cell-based, human; conditions: basal conditions, 20 μM
Description: as §1, §2, §5, §6, §7, §8, §9, §10

[13] = test system: total GSH; test: Example 2: oral L-ergothioneine on plasma glutathione in healthy humans; assay type: in vivo, human; conditions: Example 2, 200 mg orally once daily, single subject
[14] = test system: total GSH; test: Example 3: oral L-ergothioneine 5, 15, 30 mg/day on plasma glutathione in healthy humans; assay type: in vivo, human
Excerpt: A Baseline will be established looking at Total and Percent Reduced Glutathione. These same values will be measured at the end of the four weeks. Subjects will be contacted once a week while in the study for an assessment of compliance with intervention.
Study Population: Male and female subjects 25-75 years of age Number of Subjects: 5, assigned as follows: 1 subject will receive the GSH administered orally once weekly for 4 weeks; 1 subject will receive S-acetyl-glutathione supplemented orally once daily for 4 weeks; 3 subjects will receive 5, 15, 30 mg L-ergothioneine supplemented orally once daily for 4 weeks, respectively.
• 1. Individuals must be between 25-70 years of age with no known medical conditions that, in the investigator's opinion, may interfere with study participation. • 2. Subjects must present with mild to moderate signs oxidative stress or inflammation. • 3. Willingness to cooperate and participate by following Study requirements. • 4. Individuals must sign informed consent, photo release consent and confidentiality agreement.
• 1. […] Individuals currently taking certain medications or any dietary supplements, which in the opinion of the investigator might interfere with the study. This would include but not be limited to routine high dosage use of anti-inflammatory drugs (aspirin, ibuprofen, corticosteroids) immunosuppressive drugs or antihistamine medications), and insulin, anti-hypertensive drugs, and especially antioxidants. • 3. Individuals with uncontrolled metabolic diseases such as diabetes (Type I and II), hypertension, hyperthyroidism or hypothyroidism, severe chronic asthma, immunological disorders such as HIV positive, AIDS and systemic lupus erythematosus or mastectomy for cancer involving removal of lymph nodes. • 4. Women known to be pregnant, nursing or planning to become pregnant. • 5. Individuals participating in other clinical studies evaluating antioxidants or anti-inflammatory interventions.

[15] = test system: body stores of glutathione; conditions: oral 250 or 1000 mg/day, cited from earlier work
[16] = 24 hours of incubation, read-out: Viability Mean (%)
[17] = single replicates, 24 hours, read-out: Viability (%)

Structure (SMILES): Oc1ccc(C=Cc2cc(O)cc(O)c2)cc1 [Resveratrol]
- Morphological observations ([1]; 0.247 μM): +
- Morphological observations ([1]; 0.741 μM): +
- Morphological observations ([1]; 2.2 μM): +
- Morphological observations ([1]; 6.7 μM): +
- Morphological observations ([1]; 20 μM): +
- Morphological observations ([1]; 540 μM): −, *
- Viability (%) ([1]; 0.247 μM): 98%
- Viability (%) ([1]; 0.741 μM): 100%
- Viability (%) ([1]; 2.2 μM): 105%
- Viability (%) ([1]; 6.7 μM): 108%
- Viability (%) ([1]; 20 μM): 88%
- Viability (%) ([1]; 60 μM): 67% and 64%
- Viability (%) ([1]; 180 μM): 29%
- viability at 24 h, 0.247 µM [2, 16]: 99%
- viability at 24 h, 0.741 µM [2, 16]: 101%
- viability at 24 h, 2.2 µM [2, 16]: 106%
- viability at 24 h, 6.7 µM [2, 16]: 106%
- viability at 24 h, 20 µM [2, 16]: 93%
- viability at 24 h, 60 µM [2, 16]: 65%
- viability at 24 h, 180 µM [2, 16]: 31%
- viability at 24 h, 540 µM [2, 16]: 8%
- viability at 24 h, 0.247 µM [2, 17]: 101%
- viability at 24 h, 0.741 µM [2, 17]: 102%
- viability at 24 h, 2.2 µM [2, 17]: 109%
- viability at 24 h, 6.7 µM [2, 17]: 109%
- viability at 24 h, 20 µM [2, 17]: 97%
- viability at 24 h, 60 µM [2, 17]: 65%
- viability at 24 h, 180 µM [2, 17]: 32%
- viability at 24 h, 540 µM [2, 17]: 8%
- RPS28 % Control RPS28 [3]: 100 % Control
- HMOX1 % Control RPS28 [4]: 451 % Control
- MT1G % Control RPS28 [5]: 79 % Control
- TXN % Control RPS28 [6]: 345 % Control
- Viability of NHEK under irradiated condition [7]: strongly impacted
- Expression of genes involved in oxidative and cellular stress response [8]: stimulation of the expression of all genes (except MT1G)
- NQO1 % Control RPS28 [9]: 1468 % Control
- GCLC % Control RPS28 [10]: 554 % Control
- TXNRD1 % Control RPS28 [11]: 492 % Control
- GCLM % Control RPS28 [12]: 736 % Control

Structure (SMILES): CC(=O)SC[C@H](NC(=O)CC[C@H](N)C(=O)O)C(=O)NCC(=O)O [SAG, S-acetyl-glutathione]
- % change from baseline in total GSH [13]: −25%
- Total GSH at Day 30 ([13]; baseline 727 μM): 547 µM
- Total GSH at Day 30 ([14]; Example 3, 200 mg orally once daily, single subject, baseline 733 μM): 461 µM
- Total GSH at Day 30 ([14]; Example 3, second sentence on a single subject with comparator intervention (see doubts)): 503 µM
- % change from baseline in total GSH ([14]; Example 3, single subject): −37%

Structure (SMILES): N[C@@H](CCC(=O)N[C@@H](CS)C(=O)NCC(=O)O)C(=O)O [glutathione]
- Natural killer cell cytotoxicity ([15]; at six months): favorable increases
- Oxidized (GSSG) to reduced (GSH) glutathione ratio in whole blood ([15]; at six months): improvement
- Body stores of glutathione ([15]; six months, 54 non-smoking adults): significant increases
- % change from baseline in total GSH ([14]; Example 3, 1400 mg orally once weekly for 4 weeks, single subject, baseline 653 μM): −23%
